Measured values taken from US11019816B2, “Composition comprising cinmethylin-containing microparticles and a further herbicide” (BASF Agro B.V., priority 2017, dated 2021).
≈ marks a conversion by molar mass, not a printed value.

Tests used:
Alopecurus myosuroides = experiment: Field trial, post-emergence herbicidal activity; type: in vivo; conditions: ALOMY, 31 DAT
Method: (§1) Winter wheat was seeded in different soils ranging from sandy loam to clay loam soil containing 2.1-5.5% of organic matter.
(§2) For the post emergence treatment, the plants were first grown up to the 2 leaf stage (BBCH 12). Here, the herbicidal compositions were suspended or emulsified in water as distribution medium and sprayed using finely distributing nozzels.
(§3) The herbicidal activity for the individual herbicidal compositions (solo and mixture applications) was assessed 31 days after treatment (DAT).
(§4) The evaluation for the damage on winter wheat and undesired weeds caused by the tested compositions was carried out using a scale from 0 to 100%, compared to the untreated control plants. Here, 0 means no damage and 100 means complete destruction of the plants.

Capsella bursa-pastoris = experiment: Field trial, post-emergence herbicidal activity; type: in vivo; conditions: CAPBP, 31 DAT
Method: as §1, §2, §3, §4

Lamium amplexicaule = experiment: Field trial, post-emergence herbicidal activity; type: in vivo; conditions: LAMAM, 31 DAT
Method: as §1, §2, §3, §4

Matricaria inodora = experiment: Field trial, post-emergence herbicidal activity; type: in vivo; conditions: MATIN, 31 DAT
Method: as §1, §2, §3, §4

Raphanus raphanistrum = experiment: Field trial, post-emergence herbicidal activity; type: in vivo; conditions: RAPRA, 31 DAT
Method: as §1, §2, §3, §4

[1] = at 20° C.; cited from earlier work
Triticum aestivum = experiment: Field trial, phytotoxicity (damage) on winter wheat; conditions: TRZAW (winter wheat, crop damage), post-emergence, 31 DAT
Method: as §2
Cinmethylin was used in the solo application as an emulsion concentrate with an active ingredient concentration of 750 g/l.
The mixture of cinmethylin and picolinafen as an emulsifiable concentrate was prepared from cinmethylin as an emulsifiable concentrate (EC) and picolinafen as a water dispersable granule (WG) having an active ingredient concentration of 500 g/l and 50 g/l, respectively.
as §3, §4

Compound	herbicidal activity (Alopecurus myosuroides; use rate 500 g ai/ha)	herbicidal activity (Capsella bursa-pastoris; use rate 500 g ai/ha)	herbicidal activity (Lamium amplexicaule; use rate 500 g ai/ha)	herbicidal activity (Matricaria inodora; use rate 500 g ai/ha)	herbicidal activity (Raphanus raphanistrum; use rate 500 g ai/ha)	solubility in water [1]	herbicidal activity (Triticum aestivum; use rate 500 g ai/ha)	herbicidal activity (Triticum aestivum; use rate 1000 g ai/ha)	herbicidal activity (Alopecurus myosuroides; use rate 50 g ai/ha)	herbicidal activity (Capsella bursa-pastoris; use rate 50 g ai/ha)	herbicidal activity (Lamium amplexicaule; use rate 50 g ai/ha)	herbicidal activity (Matricaria inodora; use rate 50 g ai/ha)	herbicidal activity (Raphanus raphanistrum; use rate 50 g ai/ha)	herbicidal activity (Triticum aestivum; use rate 50 g ai/ha)	herbicidal activity (Triticum aestivum; use rate 100 g ai/ha)
Cc1ccccc1CO[C@@H]1C[C@@]2(C(C)C)CC[C@]1(C)O2 (racemic) [cinmethylin, (±)-2-exo-(2-methylbenzyloxy)-1-methyl-4-isopropyl-7-oxabicyclo[2.2.1]heptane]	100%	65%	53%	62%	10%	63 µg/mL (≈ 230 µM)	0%	0%	–	–	–	–	–	–	–
O=C(Nc1ccc(F)cc1)c1cccc(Oc2cccc(C(F)(F)F)c2)n1 [picolinafen (WG), picolinafen]	–	–	–	–	–	–	–	–	0%	96%	94%	69%	98%	0%	0%
